This assay deals with Alternaria solani. In words: Alternaria Test (Tomato)/Protective. As to conditions: protective, 750 g/ha, evaluated 7 days after inoculation. The class given is in vivo. On the procedure:
[table] To produce a suitable preparation of active compound, 1 part by weight of active compound is mixed with the stated amounts of solvent and emulsifier, and the concentrate is diluted with water to the desired concentration. In order to test the protective activity, young tomato plants are sprayed with the active compound preparation at the stated application rate. One day after treatment, the plants are inoculated with a spore suspension of Alternaria solani and then remain for 24 hours at 100% relative humidity and 20° C. The plants are then placed into in environment of 96% relative humidity at a temperature of 20° C. The results are evaluated 7 days after the inoculation. An efficacy of 0% corresponds to that of the control, while an efficacy of 100% means that no infestation is observed.

`Cc1nc(C(F)F)c(C(=O)Nc2ccc(F)cc2-c2ccc(Cl)c(F)c2)s1` [drawing 82] displayed an Efficacy in % of 98%.

The values are drawn from patent US7977363B2, “Biphenyl-thiazolo-carboxamides” (Bayer Cropscience AG, priority 2004, dated 2011).
